From patent US20110224221A1, “HEMATOPOIETIC PROTECTION AGAINST IONIZING RADIATION USING SELECTIVE CYCLIN-DEPENDENT KINASE 4/6 INHIBITORS” (priority 2008, published 2011) come the findings set out here.

The test system of series [1] is mice exposed to total body irradiation. Description: Survival after total body irradiation (TBI). Format: in vivo. From the text: For TBI experiments, mice were irradiated using a ^137Cs source (AECL Gammacell 40 Irradiator, Atomic Energy of Canada Ltd, Mississauga, Ontario, Canada). Delivered doses were at or near the empirically determined LD90 of 7.5 Gy, consistent with prior studies. See Na Nakorn et al., J. Clin. Invest., 109, 1579-1585 (2002); Herodin et al., Blood, 101, 2609-2616 (2003); Uckun et al., Blood, 75, 638-645 (1990); and Wang et al., Proc. Natl. Acad. Sci., USA, 94, 14590-14595 (1997). Peripheral blood was collected using a tail vein nick for complete blood cells (CBCs) and analyzed with a HemaTrue analyzer (Heska Co., Loveland, Colo., United States of America).
Adult female C57Bl/6 mice were exposed to 6.5, 7.5, or 8.5 Gy with or without PD0332991 treatment and followed for 40 days post-TBI. The LD90 for IR was determined to be about 7.5 Gy. […] See FIGS. 14A for C3H and FIG. 2E for FVB/n. […] It appears that PQ resulting from transient CDK4/6 inhibition around the time of TBI enhances radioresistance in vivo.
More particularly, animals were given a CDK4/6 inhibitor at different times relative to TBI at the LD90. As radioprotection was observed when animals were treated with two doses pre- and one dose post-TBI (see FIGS. 13A-13B), further studies were undertaken to determine which of these doses was most important for radioprotection. Without being bound to any one theory, it appeared that most of the benefit of the treatment schedule was associated PD 0332991 treatment immediately prior to or contemporaneous with TBI. […] Although there are a few known compounds that protect from radiotoxicity when administered prior to IR (i.e. “radioprotectants”) (see Burdelya et al., Science, 320, 226-230 (2008); and Weiss and Landauer, Int J. Radiat. Biol., 85, 539-573 (2009)), previous to the presently disclosed subject matter, no known hematologic “radiomitigants” (i.e., compounds that reduce hematotoxicity when administered many hours after an exposure to TBI) are believed to have been reported.

The nature of series [2]: Serum/plasma levels after oral gavage. It counts as in vivo, mice. As to the method:
Mass Spectrometry: Mice were dosed as described and tail vein nick performed to acquire 30 μL periphal blood. Blood was centrifuged to acquire 10 μL plasma, which was mixed with 100 μL ice cold methanol, centrifuged, and mixed with 10 μL of an internal control. Plasma levels were quantified based on standard curves derived in triplicate from known concentrations of wild type C57Bl/6 female mouse plasma unexposed to the measured drug. Quantification was performed using HPLC separation with triple quadrupole mass spectrometry normalizing results to measurement of the internal standard.

Series [3] concerns KPTR1, KPTR4 and KPTR5 melanoma cell lines. Description: Cell cycle analysis (BrdU incorporation in vitro) in murine melanoma cell lines. Particulars: 24 hours treatment. It counts as cell-based. From the text:
FIG. 2C is a set of graphs showing the dose-response curves for cell cycle analysis in murine (KPTR1, KPTR4 and KPTR5 from TyrRAS+Ink4a/Arf−/−mice) melanoma cell lines. […] The percentage of cells in the G1 phase is indicated by the data shown in the closed squares. The percentage of cells in the S phase is shown by the data in the open triangles. The percentage of cells in the G2/M phase is indicated by the data in the open circles. The percentage of cells actively proliferating as marked by Ki67 positive staining is shown in closed diamonds. Error bars are +/− the standard error of the mean (SEM).
Cell Lines: KPTR1, KPTR4. and KPTR5 were derived from tumor-bearing TyrRAS+Ink4a/Arf−/− by standard procedures and cultured in RPMI+10% fetal bovine serum (FBS). Telomerized HDFs (tHDFs, also known as HS68) were cultured in DMEM+10% FBS with penicillin and streptomycin. […]
BrdU Incorporation in vitro: Cells were plated and allowed to adhere overnight or at least 6 hours prior to adding CDK4/6 inhibitor at the indicated concentrations. […] The cells were then washed, trypsinized, pelleted, fixed, permeabilized, stained, and measured on a flow cytometer as described in manufacturer directions for the BrdU Kit (BD Biosciences Pharmingen, San Diego, Calif., United States of America).

[4] abbreviates: 8.5 Gy TBI, single dose four hours prior to IR.

Entries after “also recorded” stand apart in the source; their conditions may differ. A value given as a limit tells only on which side of the number the result lay.

Turning to `CC(=O)c1c(C)c2cnc(Nc3ccc(N4CCNCC4)cn3)nc2n(C2CCCC2)c1=O` [PD0332991, 6-acetyl-8-cyclopentyl-5-methyl-2-(5-piperazin-1-yl-pyridin-2-ylamino)-8H-pyrido-[2,3-d]-pyrimidin-7-one], the survival result is listed as “All mice survived” in series [1] (6.5 Gy); “all treated mice survived” in series [1] (7.5 Gy, C57Bl/6, followed 40 days post-TBI); roughly 100% in series [1] (7.5 Gy, multiple doses around IR, within 40 days); “Enhanced survival; also recorded: survival similar to animals treated on the multi-dose” in series [1] (7.5 Gy, single dose 4 hours prior to IR); “significantly enhanced” in series [1] (7.5 Gy, single dose 20 hours after TBI); “survival similar to animals treated on the multi-dose” in series [1] (7.5 Gy, single time 0 dose). Besides, the median survival in series [1] (setting [4]) is 19 days. The term survival in series [1] (setting [4]) is 13%; in series [1] (8.5 Gy TBI, single dose four hours prior to IR, listed as PD 0332991), “about 30%”. The “persistence of therapeutic serum levels” value in series [2] was 10 to 20 h. Further, in series [2], the “time until therapeutic serum levels are achieved” value is greater than 30 min. In series [3], the “sensitivity of derivative tumor cell lines in vitro” value is “insensitive”.
